Test results reported in the supplement of paper PMC10307832.

Experiments:
Experiment in all cases: relative viability (nuclei count vs DMSO), 5 days (fraction); higher = more cells survive
EHT 1864 + Trametinib = compound: C1COCCN1CC2=CC(=O)C(=CO2)OCCCCCSC3=C4C=CC(=CC4=NC=C3)C(F)(F)F [EHT 1864] + CC(=O)Nc1cccc(-n2c(=O)n(C3CC3)c(=O)c3c(Nc4ccc(I)cc4F)n(C)c(=O)c(C)c32)c1 [Trametinib] (partner 0.02 µM)
Method in brief: (§1)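 Lung cancer cell lines, seeded in 1536-well plates, were treated the following day by pin tool with a single drug or with five library-drug doses (not always all listed) in √10 steps on top of a fixed anchor-drug dose. Cells were fixed and nuclei stained in one step after 5 days, and nuclei were counted. Relative viability is the nuclei count for treated wells divided by that for vehicle wells, reported as medians of duplicate plates.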

EHT 1864 + Phenformin = compound: C1COCCN1CC2=CC(=O)C(=CO2)OCCCCCSC3=C4C=CC(=CC4=NC=C3)C(F)(F)F [EHT 1864] + N=C(N)NC(=N)NCCc1ccccc1 [Phenformin] (partner 250 µM)
Method in brief: as §1

EHT 1864 + Navitoclax = compound: C1COCCN1CC2=CC(=O)C(=CO2)OCCCCCSC3=C4C=CC(=CC4=NC=C3)C(F)(F)F [EHT 1864] + CC1(C)CCC(c2ccc(Cl)cc2)=C(CN2CCN(c3ccc(C(=O)NS(=O)(=O)c4ccc(N[C@H](CCN5CCOCC5)CSc5ccccc5)c(S(=O)(=O)C(F)(F)F)c4)cc3)CC2)C1 [Navitoclax] (partner 0.5 µM)
Method in brief: as §1

EHT 1864 + Pemetrexed = compound: C1COCCN1CC2=CC(=O)C(=CO2)OCCCCCSC3=C4C=CC(=CC4=NC=C3)C(F)(F)F [EHT 1864] + Nc1nc2[nH]cc(CCc3ccc(C(=O)N[C@@H](CCC(=O)O)C(=O)O)cc3)c2c(=O)[nH]1 [Pemetrexed] (partner 0.2 µM)
Method in brief: as §1

| Cell Line | relative viability (EHT 1864 + Trametinib; first compound 0.04 µM) | relative viability (EHT 1864 + Trametinib; first compound 0.1265 µM) | relative viability (EHT 1864 + Trametinib; first compound 0.4 µM) | relative viability (EHT 1864 + Trametinib; first compound 1.265 µM) | relative viability (EHT 1864 + Trametinib; first compound 4 µM) | relative viability (EHT 1864 + Phenformin; first compound 0.04 µM) | relative viability (EHT 1864 + Phenformin; first compound 0.1265 µM) | relative viability (EHT 1864 + Phenformin; first compound 0.4 µM) | relative viability (EHT 1864 + Phenformin; first compound 4 µM) | relative viability (EHT 1864 + Navitoclax; first compound 0.04 µM) | relative viability (EHT 1864 + Navitoclax; first compound 0.1265 µM) | relative viability (EHT 1864 + Navitoclax; first compound 0.4 µM) | relative viability (EHT 1864 + Navitoclax; first compound 1.265 µM) | relative viability (EHT 1864 + Navitoclax; first compound 4 µM) | relative viability (EHT 1864 + Pemetrexed; first compound 0.04 µM) | relative viability (EHT 1864 + Pemetrexed; first compound 0.1265 µM) | relative viability (EHT 1864 + Pemetrexed; first compound 0.4 µM) | relative viability (EHT 1864 + Pemetrexed; first compound 1.265 µM) | relative viability (EHT 1864 + Pemetrexed; first compound 4 µM) | relative viability (EHT 1864 + Phenformin; first compound 1.265 µM) |
| --- | --- | --- | --- | --- | --- | --- | --- | --- | --- | --- | --- | --- | --- | --- | --- | --- | --- | --- | --- | --- |
| NCI-H1975 | 0.375 | 0.329 | 0.296 | 0.225 | 0.327 | 0.406 | 0.42 | 0.407 | 0.396 | 1.14 | 1.19 | 1.17 | 0.928 | 0.875 | 0.271 | 0.28 | 0.274 | 0.291 | 0.285 |  |
| NCI-H1437 | 0.531 | 0.411 | 0.56 | 0.485 | 0.45 | 0.34 | 0.262 | 0.298 | 0.335 | 1.06 | 1.03 | 0.967 | 0.819 | 0.671 | 0.321 | 0.302 | 0.263 | 0.286 | 0.246 | 0.311 |
| NCI-H2009 | 0.252 | 0.267 | 0.301 | 0.336 | 0.277 | 0.467 | 0.468 | 0.493 | 0.436 | 1.16 | 1.15 | 1.14 | 1.11 | 0.879 | 1.01 | 0.95 | 1.01 | 0.965 | 0.809 | 0.362 |
| NCI-H1651 | 0.832 | 0.827 | 0.822 | 0.817 | 0.808 | 0.376 | 0.358 | 0.333 | 0.334 | 1.03 | 0.947 | 1.1 | 1 | 0.91 | 0.529 | 0.662 | 0.565 | 0.553 | 0.55 | 0.345 |
| NCI-H1666 | 0.961 | 0.886 | 0.8 | 0.884 | 0.862 | 0.614 | 0.504 | 0.584 | 0.627 | 0.881 | 0.834 | 0.957 | 0.965 | 0.92 | 1.02 | 0.831 | 0.896 | 0.786 | 0.843 | 0.562 |
| NCI-H1734 | 0.781 | 0.709 | 0.643 | 0.592 | 0.61 | 0.539 |  | 0.397 | 0.432 | 0.916 | 0.828 | 0.849 | 0.867 | 0.747 | 0.45 | 0.385 | 0.463 | 0.394 | 0.432 | 0.433 |
| EPLC-272H | 0.283 | 0.288 | 0.29 | 0.267 | 0.289 | 0.33 | 0.34 | 0.375 | 0.248 | 1.11 | 1.05 | 1.18 | 1.28 | 1.24 | 0.317 | 0.332 | 0.317 | 0.365 | 0.356 | 0.36 |
| NCI-H2023 | 0.514 | 0.459 | 0.492 | 0.569 | 0.573 | 0.405 | 0.417 | 0.371 | 0.347 | 0.964 | 0.978 | 0.874 | 0.939 | 0.841 | 0.232 | 0.258 | 0.166 | 0.201 | 0.197 | 0.358 |
| BEN | 0.819 | 0.949 | 1.09 | 0.928 | 1.1 | 0.251 | 0.275 | 0.282 | 0.247 | 0.0831 | 0.0599 | 0.0547 | 0.075 | 0.238 | 0.763 | 0.678 | 0.908 | 0.697 | 0.715 | 0.263 |
| COR-L 105 | 0.443 | 0.395 | 0.513 | 0.462 | 0.508 | 0.535 | 0.427 | 0.602 | 0.535 | 0.883 | 0.783 | 0.801 | 0.707 | 0.723 | 1.03 | 1.06 | 0.966 | 1.01 | 0.984 | 0.536 |
| HCC-15 | 0.404 |  | 0.362 | 0.362 | 0.41 | 0.491 |  | 0.461 | 0.52 | 0.732 | 0.576 | 0.682 | 0.649 | 0.736 | 0.224 |  | 0.24 | 0.226 | 0.218 | 0.383 |
